Results published in patent publication US20250186510A1, “BACTERIAL COMPOSITION FOR USE IN TREATMENT OF SUBSTANCE USE DISORDER” (Bar-Ilan University, priority 2022, published 2025).
Entries after “also recorded” stand apart in the source; their conditions may differ.

Tests used:
[1] = system: gut microbial community of cocaine-trained rats; assay: Gut microbiota throughout cocaine self-administration (beta diversity); settings: day 3 vs day 12, p=0.001
[2] = system: gut microbiota in feces of naïve rats; assay: Incubation of feces with cocaine and DHEA in vitro (16S rRNA sequencing, UniFrac, LEfSe)
Protocol: Bacterial taxa differences in fecal samples were analyzed using the Linear discriminant analysis effect size (LEfSe) method as a response for either cocaine or DHEA (0, 50, 100 and 500 μM). Stool of naïve rats was collected into 15 ml test tubes and stored under anaerobic conditions. The stool was homogenized using a vortex and mechanical stirring. After completion of the preparation, the fecal slurry was incubated at 37° C. under anaerobic conditions. Following a week of anaerobic incubation, DNA was extracted from the slurry, and 16S rRNA gene sequencing was performed (protocols described above).

[3] = system: cocaine-seeking behavior of rats; settings: cited from earlier work
[4] = system: cocaine-seeking behavior of cocaine-trained rats; assay: Extinction training after cocaine self-administration, daily DHEA; settings: DHEA 2 mg/kg IP daily, days 13-22, vs Coc-Vehicle
[5] = system: gut microbiota of cocaine-trained rats; assay: Gut microbiota composition (16S rRNA sequencing, UniFrac, ANCOM) after DHEA during extinction

| Compound | gut microbial community (beta diversity) over cocaine self-administration [1] | number of overrepresented bacterial features (LEfSe) ([2]; cocaine 100 μM vs PBS) | gut microbiota beta diversity (unweighted UniFrac distances) in vitro ([2]; cocaine 100 μM vs PBS, p=0.047) | number of overrepresented bacterial features (LEfSe) ([2]; cocaine 500 μM vs PBS) | cocaine seeking behavior relative to maintenance levels ([3]; chronic exogenous DHEA 2 mg/kg, previous work) [%] | cocaine-seeking behavior, self-administration model ([3]; pretreatment with DHEA, background) | cocaine-seeking behavior (active lever presses) during extinction [4] | changes in bacterial features (LEfSe) ([2]; DHEA 50 μM) | changes in bacterial features (LEfSe) ([2]; DHEA 100 μM) | gut microbiota composition (weighted UniFrac distances) in vitro ([2]; DHEA 100 μM vs PBS, p=0.036) | R. gnavus among overrepresented bacterial features ([2]; DHEA 500 μM) | number of overrepresented bacterial features (LEfSe) ([2]; DHEA 500 μM vs PBS) | gut microbiota composition (weighted UniFrac distances) in vitro ([2]; DHEA 500 μM vs PBS, p=0.02) | gut microbiota beta diversity (PCoA of unweighted UniFrac distances) ([5]; day 22, coc-DHEA compared with saline-vehicle) | relative abundance of R. gnavus (ANCOM) ([5]; day 22, coc-DHEA vs cocaine-vehicle) |
| --- | --- | --- | --- | --- | --- | --- | --- | --- | --- | --- | --- | --- | --- | --- | --- |
| COC(=O)[C@H]1[C@@H](OC(=O)c2ccccc2)C[C@@H]2CC[C@H]1N2C [Cocaine, benzoylmethylecgonine] | significant change | 12 | significantly changed | 15 | – | – | – | – | – | – | – | – | – | – | – |
| C[C@]12CC[C@H](O)CC1=CC[C@@H]1[C@@H]2CC[C@]2(C)C(=O)CC[C@@H]12 [DHEA, dehydroepiandrosterone] | – | – | – | – | < 20 | attenuated cocaine-seeking behavior | significantly reduced cocaine-seeking behavior | no significant changes | no significant changes | significant change | none of them belonged to R. gnavus; also recorded: not R. gnavus | 16 | significant change | resembled those of rats that received vehicle; also recorded: induces a microbiota more similar to the saline control | increase in the relative abundance of R. gnavus; also recorded: Levels of R. gnavus rose |
